The values that follow come from patent EP0840602B1, “USE OF A RETINOID FOR PREPARING AN ANTIBACTERIAL DRUG” (Pierre Fabre Dermo-Cosmetique, priority 1995, dated 1997).

In one test the test system is staphylococcus aureus. The following applies: from reference 1 (Thabaut and Meyran 1989); cited from earlier work.
The test system of a further test is St. aureus 6538 P. Nature of the test: Bactericidal kinetics and D. value. The class given is cell-based, Staphylococcus aureus. On the procedure:
Le niveau d'efficacité, de l'ordre du microgramme, a été prouvé pour des souches de staphylocoques plurirésistantes notamment aux aminosides, tétracyclines et macrolides. L'efficacité bactéricide a pu être chiffrée. En effet, le rétinal à 0,1% a une D. value (temps nécessaire pour faire chuter la population du nombre de germes) sur Staphylococcus aureus 6538 P de 14,8 minutes avec un coefficient de corrélation de 0,999 en ce qui concerne la droite de régression linéaire reliant la population de germes au temps de contact germe-rétinaldéhyde.
La D. value du Rétinal à 0,1 % P/V dans une solution éthanolique à 20 % V/V a été recherchée sur St. aureus 6538 P.
La cinétique des prélèvements microbiens a été réalisée aux temps 15', 30', 60', 4h et 6h. L'inoculum de départ étant de 1,0.10^4 germes par ml, la neutralisation se réalise d'après les temps cités dans du Bouillon Trypticase Soja, supplémenté par 10 % de Tween 80. Le neutralisant a été validé au préalable.

In test [1] the test system is adhésion des Gram positifs aux cornéocytes. Description: Adhesion of staphylococci to corneocytes according to Cole and Silverberg (1986). The class given is cell-based. The following applies: doses infrabactériostatiques. The source says:
Le rétinaldéhyde et ses isomères dont le 9 et le 13 cis-rétinaldéhyde possèdent une activité ciblée sur les Gram positifs, en particulier du genre Staphylococcus dont le staphylocoque doré. […] L'efficacité a pu être mise en évidence par le calcul des concentrations minimales inhibitrices et bactéricides sur des souches polyrésistantes issues de prélèvements cutanés isolés en milieu hospitalier et par études de l'adhésion du staphylocoque aux cornéocytes selon Cole et Silverber (1986).
• 1. Thabaut A. et Meyran M. (1989) Activité bactéricide comparée de quatorze antibiotiques sur staphylococcus aureus. Path. Biol. 37 : 321 - 328. • 2. Cole G.W.; Silvergerg N.L (1986) The adherence of staphylococcus aureus to human corneocytes. Arch. Dermatol. 122 : 166 - 169.

The subject of test [2] is St. aureus. Nature of the test: Minimal inhibitory concentration (CMI), broth microdilution in microplates. Format: cell-based, Staphylococcus aureus. The following applies: 10^6 germes par ml, 24 h at 32° C, first line of each compound in the table. On the procedure:
(§1) • Staphylococcus aureus 6538 P • Staphylococcus aureus de pathologies cutanées isolées de l'hôpital Rangueil Toulouse - (France)
• . Bouillon Trypticase soja (Biomérieux)
(§2) Les solutions-mère des produits cités ci-dessous ont été préparées dans l'alcool puis dissoutes dans l'eau distillée stérile de façon à être en final à 200 µg/ml et environ 10° éthanolique (sous lumière jaune). • . Rétinal all Trans • . Rétinal 9 Cis (Sigma R 5754 - lot 62 H 84 43) • . Rétinal 13 Cis (Sigma R 6256 - lot 81 H 8440)
(§3) Une distribution de 100 µl de bouillon Trypticase soja est réalisée dans chaque microcupule de la microplaque stérile (A).
(§4) Un témoin stérilité du milieu et un autre témoin de la vigueur de la souche sont réalisés en parallèle sur la microplaque.
(§5) L'ensemencement de la microplaque (A) a lieu sous la hotte après préparation de l'inoculum bactérien comme suit :
(§6) Les souches ayant été préalablement repiquées la veille sur gélose Trypticase soja, un inoculum 10^8 germes/ml est dispersé dans l'eau distillée stérile puis agité au vortex.
(§7) Les billes de verre assurant une bonne dispersion des souches, la mesure de la densité permet de préparer un inoculum adéquat par rapport à un étalonnage pré-établi et validé.
(§8) La répartition de la souche a lieu dans une deuxième microplaque (B) stérile par distribution de 100 µl d'inoculum par microcupule.
(§9) L'ensemencement a lieu par un repiquage de la microplaque (B) vers la microplaque (A), il se réalise ainsi une dilution au 1/100 de l'inoculum : la microplaque A contenant 10^6 germes par ml, peut être mise à l'étuve 24 h à 32° C.
(§10) La lecture de la plus grande dilution donnant lieu à une clarté identique au témoin stérilité du milieu, constitue la concentration minimale inhibitrice.

Test [3] deals with St. epidermis. The test is described as above. Format: cell-based. The following applies: 10^6 germes par ml, 24 h at 32° C, first line of each compound in the table. On the procedure:
as §2, §3, §4, §5, §6, §7, §8, §9, §10

For test [4], the system named is St. aureus. Description: Minimal bactericidal concentration (CMB), subculture of the microplate on trypticase soy agar. The following applies: subculture 24-48 h at 32° C, second line of each compound in the table. The class given is cell-based, Staphylococcus aureus. On the procedure: as §1
(§11) • . Gélose Trypticase soja (Biomérieux)
as §2
(§12) Le repiquage de la microplaque A sur une gélose trypticase soja préalablement coulée, permet après culture de 24-48 h à 32° C, la lecture de la concentration CMB = plus petite concentration ne permettant pas de croissance sur la gélose.

Test [5] deals with St. epidermis. The test is described as above. The class given is cell-based. The following applies: subculture 24-48 h at 32° C, second line of each compound in the table. On the procedure: as §11, §2, §12

Turning to `CC[C@H]1OC(=O)[C@H](C)[C@@H](O[C@H]2C[C@@](C)(OC)[C@@H](O)[C@H](C)O2)[C@H](C)[C@@H](O[C@@H]2O[C@H](C)C[C@H](N(C)C)[C@H]2O)[C@](C)(O)C[C@@H](C)C(=O)[C@H](C)[C@@H](O)[C@]1(C)O` [érythromycine], the “temps pour faire chuter la population microbienne de 2 Log 10” value in the test with staphylococcus aureus is recorded as 48 heures.

Consider `CC(C=CC=C(C)C=CC1=C(C)CCCC1(C)C)=CC=O` [Rétinal, rétinal], for which, in the test on St. aureus 6538 P (Rétinal 0,1 % P/V in 20 % V/V ethanolic solution, St. aureus 6538 P, linear regression r = 0,99), the D. value is 14,8 mn. Also, the “surviving germs, Temps 15” value with St. aureus 6538 P (Rétinal 0,1 % P/V in 20 % V/V ethanolic solution, contact 15', starting inoculum 1,0.10^4 germes par ml) is reported as 1,4.10^3. Besides, in the test with St. aureus 6538 P (Rétinal 0,1 % P/V in 20 % V/V ethanolic solution, contact 30', starting inoculum 1,0.10^4 germes par ml), the “surviving germs, Temps 30” value was 1,3.10^2. For the same compound, the “surviving germs, Temps 60” value in the test on St. aureus 6538 P (Rétinal 0,1 % P/V in 20 % V/V ethanolic solution, contact 60', starting inoculum 1,0.10^4 germes par ml) came out at 0. Also, the “surviving germs, Temps 4h” value in the test with St. aureus 6538 P (Rétinal 0,1 % P/V in 20 % V/V ethanolic solution, contact 4h, starting inoculum 1,0.10^4 germes par ml) worked out at 0. The “surviving germs, Temps 6h” value in the test with St. aureus 6538 P (Rétinal 0,1 % P/V in 20 % V/V ethanolic solution, contact 6h, starting inoculum 1,0.10^4 germes par ml) is 0. Further, the “Log, Temps 15” value in the test with St. aureus 6538 P (log of surviving germs, Rétinal 0,1 %, contact 15') is given as 3,15. In addition, in the test on St. aureus 6538 P (log of surviving germs, Rétinal 0,1 %, contact 30'), the “Log, Temps 30” value is on record as 2,11. Further, the “D. value (temps nécessaire pour faire chuter la population du nombre de germes)” value in the test on St. aureus 6538 P (rétinal à 0,1%, Staphylococcus aureus 6538 P, coefficient de corrélation 0,999) is 14,8 minutes. Further, in test [1], the “inhibition de l'adhésion des Gram positifs aux cornéocytes” value is “activité inhibant d'adhésion des Gram positifs aux cornéocytes”.

As to `CC1=C(/C=C/C(C)=C\C=C\C(C)=C\C=O)C(C)(C)CCC1` [RETINAL 9 Cis, 9 cis-rétinaldéhyde], the CMI in the test with St. aureus [2] is recorded as 0,0003%; in the test with St. epidermis [3], 0,0001%. The results for the CMB in the test on St. aureus [4] and with St. epidermis [5] were 0,0025% and 0,0006%, respectively.

For `CC1=C(/C=C/C(C)=C/C=C/C(C)=C\C=O)C(C)(C)CCC1` [RETINAL 13 Cis, 13 cis-rétinaldéhyde], the CMI with St. aureus [2] is recorded as 0,0006%; in the test with St. epidermis [3], 0,0001%. The CMB is given as 0,0025% in the test with St. aureus [4] and 0,0006% with St. epidermis [5].

In the case of `CC1=C(/C=C/C(C)=C/C=C/C(C)=C/C=O)C(C)(C)CCC1` [RETINALDEHYDE ALL TRANS, rétinaldéhyde tout trans], the CMI was 0,0003% in the test with St. aureus [2] and 0,0001% with St. epidermis [3]. The CMB in the test with St. aureus [4] was 0,0012%; in the test on St. epidermis [5], 0,0003%.
